Among the data in patent US20240190855A1 (Relay Therapeutics, Inc., priority 2021, published 2024) are IC50 values, retold here.

pIC50: −log10 of the molar value.

This experiment addresses T1, CDK2/Cyclin E complex (Homo sapiens, UniProt P24941).
T1 construct: purchased Eurofins 14-475
The experiment is described as follows: CDK2/Cyclin E fluorescence-based microfluidic mobility shift assay (CDK2 Biochemical Caliper Assay). As to conditions: read-out: Biochemical CDK2/CyclinE Caliper IC50. A digest of the protocol:
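Microfluidic mobility-shift readout after EDTA termination measured phosphorylation of fluorescent FL Peptide 18 (1.5 uM final) in a 20 hr room-temperature reaction. Compounds were tested at 11 concentrations (3-fold).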
As to `COCc1cc2c(Nc3cc([C@H]4C[C@@H](OC(=O)NC(C)(C)C(F)(F)F)CO4)[nH]n3)nccn2n1` [Example 641], the pIC50 was no less than 7.00.

Turning to `COCc1cc(C(=O)Nc2cc([C@H]3C[C@@H](COc4cn(C)nc4C(C)(C)C)C3)[nH]n2)n(C)n1` [Example 642], the pIC50 is 6.60 to 7.00.

Take `COCc1cc2c(Nc3cc([C@H]4C[C@@H](OC(=O)NC5(CC(F)(F)F)CC5)CO4)[nH]n3)nccn2n1` [Example 643]: the pIC50 was no less than 7.00.

`COCc1cc2c(Nc3cc([C@H]4C[C@@H](OC(=O)NC5(C(F)F)CC5)CO4)[nH]n3)nccn2n1` [Example 644]: the pIC50 is no less than 7.00.

Take `COCc1cc(C(=O)Nc2cc([C@H]3C[C@@H](COc4cn[nH]c4C4(C)CC4)C3)[nH]n2)n(C)n1` [Example 645]: the pIC50 is 6.00 to 6.60.

Consider `CC(C)NC(=O)OC[C@H]1C[C@@H](c2cc(NC(=O)c3cc(COC(F)(F)F)nn3C)n[nH]2)C1` [Example 646], for which the pIC50 was no less than 7.00.

`COCc1cc2c(Nc3cc([C@H]4C[C@@H](OC(=O)NC(C)(C)C(F)F)CO4)[nH]n3)nccn2n1` [Example 647]: the pIC50 was no less than 7.00.

With `CC(C)NC(=O)O[C@@H]1CO[C@H](c2cc(Nc3nccc4nccn34)n[nH]2)C1` [Example 648], the pIC50 is no less than 7.00.

For `CC(C)NC(=O)O[C@H]1CO[C@@H](c2cc(Nc3nccc4nccn34)n[nH]2)C1` [Example 649], the pIC50 was no less than 7.00.

`CC(C)NC(=O)OC[C@H]1C[C@@H](c2cc(NC(=O)c3cc(COC(F)F)nn3C)n[nH]2)C1` [Example 650]: the pIC50 was no less than 7.00.

As to `COCc1cc2c(Nc3cc([C@H]4C[C@@H](OC(=O)NC56CC(C5)C6)CO4)[nH]n3)nccn2n1` [Example 651], the pIC50 is no less than 7.00.

As to `CC(C)NC(=O)OC[C@H]1C[C@@H](c2cc(NC(=O)c3cc(COC(C)C)nn3C)n[nH]2)C1` [Example 652], the pIC50 is no less than 7.00.

`CCOCc1cc2c(Nc3cc([C@H]4C[C@@H](OC(=O)NC(C)C)CO4)[nH]n3)nccn2n1` [Example 653]: the pIC50 is no less than 7.00.

Take `CC[C@@H](C)NC(=O)O[C@H]1CO[C@@H](c2cc(Nc3nccn4nc(COC)cc34)n[nH]2)C1` [Example 654]: the pIC50 is no less than 7.00.

With `COCc1cc2c(Nc3cc([C@H]4C[C@@H](OC(=O)N[C@H](C)C5CC5)CO4)[nH]n3)nccn2n1` [Example 655], the pIC50 is no less than 7.00.

Regarding `COCc1cc2c(Nc3cc([C@H]4C[C@@H](OC(=O)N[C@@H](C)C5CC5)CO4)[nH]n3)nccn2n1` [Example 656], the pIC50 was no less than 7.00.

With `CC(C)NC(=O)O[C@@H]1CC[C@H](c2cc(NC(=O)c3cc(CN4CCC(F)(F)C4)nn3C)n[nH]2)C1` [Example 657], the pIC50 was no less than 7.00.

As for `CC(C)NC(=O)O[C@H]1CO[C@@H](c2cc(Nc3nccn4nc(COC(C)C)cc34)n[nH]2)C1` [Example 658], the pIC50 was no less than 7.00.

As for `COCc1cc2c(Nc3cc([C@H]4C[C@@H](OC(N)=O)CO4)[nH]n3)nccn2n1` [Example 659], the pIC50 was 4.00 to 6.00.

As for `C#CC1CN(C(=O)O[C@@H]2CC[C@H](c3cc(NC(=O)Cc4cc(C)no4)n[nH]3)C2)C1` [Example 660], the pIC50 was 6.60 to 7.00.

With `Cc1cc(CC(=O)Nc2cc([C@H]3CC[C@@H](OC(=O)N4CC5C(C4)C5(C)C)C3)[nH]n2)on1` (some centres unmarked) [Example 661], the pIC50 is no less than 7.00.

Regarding `Cc1cc(CC(=O)Nc2cc([C@H]3CC[C@@H](OC(=O)N4C[C@@H]5[C@@H](CF)[C@@H]5C4)C3)[nH]n2)on1` [Example 662], the pIC50 is no less than 7.00.

`Cc1cc(CC(=O)Nc2cc([C@H]3CC[C@@H](OC(=O)N4CC5CC(C5)C4)C3)[nH]n2)on1` [Example 663]: the pIC50 is no less than 7.00.

For the compound `Cc1cc(CC(=O)Nc2cc([C@H]3CC[C@@H](OC(=O)N4CC5CC(F)(C5)C4)C3)[nH]n2)on1` [Example 664], the pIC50 is 6.60 to 7.00.

As for `COCc1cc2c(Nc3cc([C@H]4C[C@@H](OC(=O)N[C@@H](C)C(C)C)CO4)[nH]n3)nccn2n1` [Example 665], the pIC50 was no less than 7.00.

For the compound `COCc1cc2c(Nc3cc([C@H]4C[C@@H](OC(=O)NC5CCC5)CO4)[nH]n3)nccn2n1` [Example 666], the pIC50 is no less than 7.00.

As to `CC(C)NC(=O)O[C@H]1CO[C@@H](c2cc(Nc3nccn4nc(COC(F)F)cc34)n[nH]2)C1` [Example 667], the pIC50 is no less than 7.00.

For `COCc1cc2c(Nc3cc([C@H]4C[C@@H](OC(=O)NC5(COC)CC5)CO4)[nH]n3)nccn2n1` [Example 668], the pIC50 was no less than 7.00.

With `CC(C)NC(=O)O[C@H]1CO[C@@H](c2cc(Nc3nccn4nc(CN5CCOCC5)cc34)n[nH]2)C1` [Example 669], the pIC50 was no less than 7.00.

With `COCc1cc(C(=O)Nc2ncc([C@H]3C[C@@H](COC(=O)NC(C)C)C3)s2)n(C)n1` [Example 670], the pIC50 was no less than 7.00.

For `COCc1cc2c(Nc3cc([C@H]4C[C@@H](Oc5nncn5C(C)C)CO4)[nH]n3)nccn2n1` [Example 671], the pIC50 is 6.60 to 7.00.

Consider `CC(C)NC(=O)O[C@@H]1CC[C@H](c2cc(NC(=O)c3cc(CN4CC(F)(F)C4)nn3C)n[nH]2)C1` [Example 672], for which the pIC50 was no less than 7.00.

In the case of `CC(C)NC(=O)O[C@H]1CO[C@@H](c2cc(Nc3nccn4nc(CN5CCC5)cc34)n[nH]2)C1` [Example 673], the pIC50 is no less than 7.00.

As for `COCc1cc2c(Nc3cc([C@H]4C[C@@H](OC(=O)NC5(C)CCC5)CO4)[nH]n3)nccn2n1` [Example 674], the pIC50 is no less than 7.00.

`CC[C@H](C)NC(=O)O[C@H]1CO[C@@H](c2cc(Nc3nccn4nc(COC)cc34)n[nH]2)C1` [Example 675]: the pIC50 is no less than 7.00.

`CC(C)NC(=O)O[C@H]1CO[C@@H](c2cc(Nc3nccn4nc(CN5CCCC5)cc34)n[nH]2)C1` [Example 676]: the pIC50 was no less than 7.00.

As to `COCc1cc2c(Nc3cc([C@H]4C[C@@H](OC(=O)N[C@H]5CC5(C)C)CO4)[nH]n3)nccn2n1` [Example 677], the pIC50 was no less than 7.00.

As to `COCc1cc2c(Nc3cc([C@H]4C[C@@H](OC(=O)NC5(c6cnn(C)c6)CC5)CO4)[nH]n3)nccn2n1` [Example 678], the pIC50 is 6.60 to 7.00.

As for `COCc1cc2c(Nc3cc([C@H]4C[C@@H](OC(=O)N[C@@H]5CC5(C)C)CO4)[nH]n3)nccn2n1` [Example 679], the pIC50 is no less than 7.00.

As for `COCc1cc2c(Nc3cc([C@H]4C[C@@H](OC(=O)NC5(CF)CC5)CO4)[nH]n3)nccn2n1` [Example 680], the pIC50 was no less than 7.00.

With `COCc1nc2ccnc(Nc3cc([C@H]4C[C@@H](OC(=O)NC5(C)CC5)CO4)[nH]n3)c2s1` [Example 681], the pIC50 was no less than 7.00.

In the case of `COCc1nc2ccnc(Nc3cc([C@H]4C[C@@H](OC(=O)NC5(COC)CC5)CO4)[nH]n3)c2s1` [Example 682], the pIC50 is no less than 7.00.

As to `COCc1cc2c(Nc3cc([C@H]4C[C@@H](OC(=O)NC5COC5)CO4)[nH]n3)nccn2n1` [Example 683], the pIC50 was 6.00 to 6.60.

For the compound `COCc1cc2c(Nc3cc([C@H]4C[C@@H](OC(=O)NC56CCC(CC5)CC6)CO4)[nH]n3)nccn2n1` [Example 684], the pIC50 is no less than 7.00.

Regarding `COCc1cc2c(Nc3cc([C@H]4C[C@@H](OC(=O)N[C@H](C)C5(C)COC5)CO4)[nH]n3)nccn2n1` [Example 685], the pIC50 was 4.00 to 6.00.

Consider `COCc1cc2c(Nc3cc([C@H]4C[C@@H](OC(=O)N[C@@H](C)C5COC5)CO4)[nH]n3)nccn2n1` [Example 686], for which the pIC50 was 6.60 to 7.00.

Turning to `COCc1cc2c(Nc3cc([C@H]4C[C@@H](OC(=O)N[C@H]5C[C@@H]5C)CO4)[nH]n3)nccn2n1` [Example 687], the pIC50 was no less than 7.00.

As for `COCc1cc2c(Nc3cc([C@H]4C[C@@H](OC(=O)N[C@@H](C)C5(C)COC5)CO4)[nH]n3)nccn2n1` [Example 688], the pIC50 is 6.60 to 7.00.

Consider `COCc1cc(C(=O)Nc2cc([C@H]3C[C@@H](COc4[nH]ncc4C(C)C)C3)[nH]n2)n(C)n1` [Example 689], for which the pIC50 was no less than 7.00.

As for `COCc1cc2c(Nc3cc([C@H]4C[C@@H](COc5nncn5C5(C)CC5)C4)[nH]n3)nccn2n1` [Example 690], the pIC50 was no less than 7.00.

`COCc1cc(C(=O)Nc2cc([C@H]3C[C@@H](COc4[nH]ncc4C(C)(C)C)C3)[nH]n2)n(C)n1` [Example 691]: the pIC50 is no less than 7.00.

In the case of `COCc1nc2ccnc(Nc3cc([C@H]4C[C@@H](OC(=O)NC(C)(C)C)CO4)[nH]n3)c2s1` [Example 692], the pIC50 was no less than 7.00.

Take `COCc1cc2c(Nc3cc([C@H]4C[C@@H](OC(=O)N[C@H]5CC[C@@H](OC)CC5)CO4)[nH]n3)nccn2n1` [Example 693]: the pIC50 is 4.00 to 6.00.

Take `COCc1cc2c(Nc3cc([C@H]4C[C@@H](OC(=O)NCCC5CCOCC5)CO4)[nH]n3)nccn2n1` [Example 694]: the pIC50 was 4.00 to 6.00.

With `COCc1cc2c(Nc3cc([C@H]4C[C@@H](OC(=O)NC(C)(C)COC)CO4)[nH]n3)nccn2n1` [Example 695], the pIC50 was no less than 7.00.

On to `COCc1nc2ccnc(Nc3cc([C@H]4C[C@@H](OC(=O)NC5(C)COC5)CO4)[nH]n3)c2s1` [Example 696], for which the pIC50 was no less than 7.00.

On to `COCc1cc2c(Nc3cc([C@H]4C[C@@H](OC(=O)N[C@@H]5C[C@H]5C)CO4)[nH]n3)nccn2n1` [Example 697], for which the pIC50 was no less than 7.00.

With `COCc1cc2c(Nc3cc([C@H]4C[C@@H](OC(=O)NC5(C#N)CC5)CO4)[nH]n3)nccn2n1` [Example 698], the pIC50 was no less than 7.00.

In the case of `CC(C)n1cnnc1O[C@H]1CO[C@@H](c2cc(NC(=O)c3cc(COC(F)(F)F)nn3C)n[nH]2)C1` [Example 699], the pIC50 was no less than 7.00.

Take `COCc1cc2c(Nc3cc([C@H]4C[C@@H](OC(=O)NC5(C)COC5)CO4)[nH]n3)nccn2n1` [Example 700]: the pIC50 was no less than 7.00.

For `COCc1nc2ccnc(Nc3cc([C@H]4C[C@@H](OC(=O)NC(C)(C)COC)CO4)[nH]n3)c2s1` [Example 701], the pIC50 is no less than 7.00.

As to `COCc1cc2c(Nc3cc([C@H]4C[C@@H](OC(=O)NC5(C6CC6)CC5)CO4)[nH]n3)nccn2n1` [Example 702], the pIC50 is no less than 7.00.
